Experimental findings from ChEMBL document CHEMBL2046288, “Cristatumins A-D, new indole alkaloids from the marine-derived endophytic fungus Eurotium cristatum EN-220” (2012) are described below.

Holding throughout (type): functional
The subject of test [1] is Escherichia coli. The test can be described thus: Antibacterial activity against Escherichia coli by well diffusion method. (In general: Agar diffusion results depend on both activity and mobility in agar.)
In test [2] the test system is Staphylococcus aureus. Kind of test: Antibacterial activity against Staphylococcus aureus by well diffusion method.
Test [3] concerns Artemia salina. Kind of test: Insecticidal activity against Artemia salina. As to conditions: read-out: LD50 (the source's name).
Test [4] has as its system Staphylococcus aureus. The test can be described thus: Antibacterial activity against Staphylococcus aureus assessed as inhibition zone at 100 ug/disc by well diffusion method. As to conditions: read-out: IZ.

Values after ≈ are worked out from the molar mass of the structure shown.

What is called MIC is the lowest concentration found to suppress growth. Consider `O=C(N[C@H](CO)[C@H](O)c1ccc([N+](=O)[O-])cc1)C(Cl)Cl` [CHLORAMPHENICOL], for which the MIC in test [1] and in test [2] was 4 µg/mL (≈ 12.4 µM) in each case.
As to `C=CC(C)(C)c1[nH]c2ccccc2c1/C=C1\NC(=O)[C@H](CO)NC1=O` [CRISTATUMIN A], the MIC in test [1] was 64 µg/mL (≈ 189 µM).
`C=CC(C)(C)c1[nH]c2c(CC=C(C)C)cc(CC=C(C)C)cc2c1C[C@@H]1NC(=O)[C@H](CO)NC1=O` [CRISTATUMIN B]: the LC50 in test [3] was determined as 74.4 µg/mL (≈ 156 µM).
As for `C=CC(C)(C)c1[nH]c2ccccc2c1/C=C(\NC(=O)C(N)=O)C(=O)OC` [CRISTATUMIN D], the zone of inhibition at 100 µg/disc in test [4] was determined as 8 mm.
With `C=CC(C)(C)c1[nH]c2c(CC=C(C)C)cc(CC=C(C)C)cc2c1C[C@@H]1NC(=O)[C@H](C)NC1=O` [ECHINULIN], in test [4], the zone of inhibition at 100 µg/disc amounted to 8 mm.
Regarding `C=CC(C)(C)c1[nH]c2ccc(CC=C(C)C)cc2c1/C=C1\NC(=O)[C@H](C)NC1=O` [ISOECHINULIN A], the LC50 in test [3] was found to be 16.9 µg/mL (≈ 43.2 µM).
Molecule `C=CC(C)(C)c1[nH]c2ccc(CC=C(C)C)cc2c1C[C@@H]1NC(=O)[C@H](C)NC1=O` [TARDIOXOPIPERAZINE A] displayed an MIC in test [2] of 8 µg/mL (≈ 20.3 µM).
Take `C=CC(C)(C)c1[nH]c2c(CC=C(C)C)cccc2c1/C=C1\NC(=O)[C@H](C)NC1=O` [VARIECOLORIN G]: the LC50 in test [3] worked out at 42.6 µg/mL (≈ 109 µM).
